The text below walks through data of ChEMBL document CHEMBL1132794, “Structure-based design of six novel classes of nonpeptide antagonists of the bradykinin B2 receptor” (Bioorg Med Chem Lett, 2000).

Each structure is given as a SMILES string.

What all share (format): cell-based
Assay [1] concerns the target T1, B2 bradykinin receptor (Homo sapiens, UniProt P30411).
T1 sequence (P30411 whole entry): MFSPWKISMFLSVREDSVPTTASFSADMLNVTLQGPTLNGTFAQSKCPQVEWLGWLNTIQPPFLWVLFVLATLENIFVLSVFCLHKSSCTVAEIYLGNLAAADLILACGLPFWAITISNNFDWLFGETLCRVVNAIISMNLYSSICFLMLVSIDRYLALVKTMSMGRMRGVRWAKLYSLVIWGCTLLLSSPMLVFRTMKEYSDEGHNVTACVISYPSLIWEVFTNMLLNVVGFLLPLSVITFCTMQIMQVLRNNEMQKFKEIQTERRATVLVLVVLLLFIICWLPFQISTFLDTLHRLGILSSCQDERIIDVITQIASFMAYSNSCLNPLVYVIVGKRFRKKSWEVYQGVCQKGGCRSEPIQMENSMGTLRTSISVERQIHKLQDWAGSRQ
In words: Compound was assayed for binding against the human Bradykinin receptor B2 expressed in CHO cells.

Assay [2] deals with T1, B2 bradykinin receptor. In words: Compound was assayed for binding against the human Bradykinin receptor B2 expressed in CHO cells; 0.2-16.
The target in assay [3] is T1, B2 bradykinin receptor. In words: Compound was assayed for binding against the human Bradykinin receptor B2 expressed in CHO cells; NA means Inactive.

The molecule `NCc1ccc(CNC(=O)[C@@H](CN)n2cccc2CNC(=O)C(c2ccccc2)C2CCCCC2)cc1` (stereo partly specified) returned a Kd on B2 bradykinin receptor [1] of 17 µM. This counts as double-digit micromolar. On the same count and under the same terms, as for `CCCCC1(CCCC)Oc2cccc(N(CCCN)C(=O)c3ccc(CN)cc3)c2O1`, the figure is 14 µM; as for `NCc1cccc(Cn2ccc3c2C(=O)C(Cc2ccccc2)(Cc2ccccc2)CC3)c1`, 7.6 µM. `NCCCC[C@@H]1NC(=O)[C@H](c2ccccc2)NC(=O)[C@H](CNC(=O)Cc2ccccc2)NC(=O)[C@H]2Cc3ccccc3CN2C(=O)[C@@H]2CC3CCCCC3N2C(=O)[C@H](CN)NC1=O` (stereo partly specified) yielded a Kd at B2 bradykinin receptor [2] (cho) of 0.2 µM. In the case of `CCCCc1ccnc([C@H](CC2CCCCC2)NC(=O)CCCCN(CCCC)CCCC)c1`, binding on B2 bradykinin receptor [1] was put at a Kd of 23 µM. In the case of `CCCCc1ccnc([C@H](CC2CCCCC2)NC(=O)CCCCN)c1`, binding on B2 bradykinin receptor [1] was characterised by a dissociation constant (Kd) of 62 µM. Same read-out and setting: as for `N=C(N)NCCC1N=C(c2ccccc2)c2cc(N(Cc3ccccc3)Cc3ccccc3)ccc2N(CCCN=C(N)N)C1=O` (stereo unspecified), the figure is 4.5 µM.

For the molecule `NCCCC[C@H](C(=O)NCc1ccc(CN)cc1)n1cccc1C(=O)NC(Cc1ccccc1)c1ccccc1` (stereo partly specified), on B2 bradykinin receptor [1], binding was characterised by a dissociation constant (Kd) of 28 µM. The same measure, in the same setting: the value for `NC(N)=NC[C@H]1C[C@@H](OCc2ccccc2)CN1C(=O)c1ccc2ccccc2c1` was 15 µM; that for `NC[C@H]1C[C@@H](OCc2ccccc2)CN1C(=O)c1ccc2ccccc2c1` was 66 µM.

`N=C(N)NCC1N=C(c2ccccc2)c2cc(N(Cc3ccccc3)Cc3ccccc3)ccc2N(CCCN=C(N)N)C1=O` (stereo unspecified) returned a Kd on B2 bradykinin receptor [1] of 12 µM. Same read-out and setting: the value for `CCCCc1ccnc([C@H](CC2CCCCC2)NC(=O)c2ccc(CN)cc2)c1` was 7.4 µM. `CCCCC1(CCCC)Oc2cccc(NC(=O)c3ccc(CN)cc3)c2O1` gave a Kd on B2 bradykinin receptor [1] of 13 µM. This Kd lies about 1.8-fold higher than the previous one. `CCCCc1ccnc([C@H](CC2CCCCC2)NC(=O)c2ccc(CNC(=N)N)cc2)c1`: the Kd on B2 bradykinin receptor [1] was 5 µM. As to `N=C(N)NC[C@H]1C[C@@H](OCc2ccccc2)CN1C(=O)c1ccccc1`, the Kd entry on B2 bradykinin receptor [3] was “Not Active”. In the case of `NC[C@H]1C[C@@H](OCc2ccccc2)CN1C(=O)c1ccccc1`, at B2 bradykinin receptor [3], the Kd result is given as “Not Active”. Molecule `N=C(N)NCCC[C@@H]1NC(=O)N2C3CCCCC3C[C@H]2C(=O)N2Cc3ccccc3C[C@@H]2C(=O)NCC[C@@H](NC(=O)CCc2ccccc2)C(=O)CCNC1=O` (stereo partly specified) yielded a Kd on B2 bradykinin receptor [2] of 0.2 µM. Consider `NCCCC[C@H](C(=O)NCc1ccc(CN)cc1)n1cccc1C(=O)NCCc1ccccc1`, for which the Kd result at B2 bradykinin receptor [3] is “Not Active”. At B2 bradykinin receptor [1], `NCc1ccc(CNC(=O)[C@@H](CN)n2cccc2CNC(=O)CC2CCCCC2)cc1` came in with a Kd of 101 µM. `NCCCN1C(=O)C(CN)N=C(c2ccccc2)c2cc(N(Cc3ccccc3)Cc3ccccc3)ccc21` (stereo unspecified) had a Kd at B2 bradykinin receptor [1] of 4.3 µM. Regarding `NCCCN1C(=O)C(CCN)N=C(c2ccccc2)c2cc(N(Cc3ccccc3)Cc3ccccc3)ccc21` (stereo unspecified), the Kd at B2 bradykinin receptor [1] came out at 15 µM.
